Laboratory results from publication PMC8910697, “Development of VPC-70619, a Small-Molecule N-Myc Inhibitor as a Potential Therapy for Neuroendocrine Prostate Cancer” (International Journal of Molecular Sciences, 2022).

Experiments:
[1] = system: N-Myc-Max transcription activity (LNCaP-NMYC cells); test: Myc transcription assay (Cignal Myc reporter, luciferase) in LNCaP-NMYC cells; assay type: cell-based
In short: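 LNCaP-NMYC cells transfected with Cignal Myc luciferase reporter were treated 24 h with compounds at 5 µM or 10 µM. Read-out: inhibition of N-Myc-Max-driven reporter luminescence.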

[2] = Microsomal stability assay; assay type: in vitro ADME, Mouse
Description: A microsomal stability assay was performed using the Corning Gentest NADPH Regenerating System (Corning, #451220/41200) (Corning, NY, USA). Mouse liver microsomes (MLM) (Xenotech, M1000) (Kansas City, KS, USA) and compounds were diluted to a final concentration of 0.15 mg/mL and 1 μM respectively. These were prepared into a 500 μL solution with 100 mM potassium phosphate buffer (pH = 7.4). Imipramine was used as a control. NADPH solutions A and B were mixed in a 5:1 ratio, and 24 μL of the NADPH was added to each of the MLM/compound samples at 30 s intervals. At time points 10, 20, and 45 min, 100 μL of reaction was added to the stopping solution. Samples were centrifuged at 18,000× g and incubated at 4 °C for 10 min. Samples were then loaded onto a LC-MS 96-well plate for analysis.

[3] = molecular target: T1, N-Myc-Max complex (Homo sapiens, UniProt P04198+P61244); test: Microscale thermophoresis (MST) binding; settings: for binding to N-Myc-Max complex (in words): MST
T1 construct: N-Myc (amino acids 309–394) and Max (amino acids 12–93); 6xHis (N); made in house; host or cells: E. coli BL21
T1 sequence (P04198 379-464 limits assumed): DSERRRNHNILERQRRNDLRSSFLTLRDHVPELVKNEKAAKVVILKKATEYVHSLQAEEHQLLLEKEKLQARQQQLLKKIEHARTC
T1 sequence (P61244 12-93 isoform P61244-2 limits assumed): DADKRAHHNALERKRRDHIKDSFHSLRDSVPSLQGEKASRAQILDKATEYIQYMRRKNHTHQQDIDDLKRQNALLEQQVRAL
Description: We first performed a microscale thermophoresis (MST) assay to validate the direct binding of VPC-70619 to the recombinant N-Myc-Max complex and to calculate the binding affinity. We evaluated the effect of increasing concentrations of 70619 on the movement of a fluorescent labelled N-Myc-Max complex through a temperature gradient induced by an infrared laser.
The bHLHLZ domain of N-Myc (amino acids 309–394) and Max (amino acids 12–93) protein sequences were cloned into pETDuet with an N-terminal 6×His. pETDuet-His-NMyc-Max was transformed and expressed in E. coli BL21 and induced with 0.5 mM isopropyl-β-D-thiogalactopyranoside (IPTG) at 16 °C overnight. The cultures were lysed by sonication and combined for purification by immobilized metal ion chromatography (IMAC) with nickel-nitrilotriacetic acid (Ni-NTA) resin. The bound proteins were eluted from the column with 20 mM Tris, pH = 8, 500 mM NaCl, 5% glycerol, 300 mM imidazole, 5 mM βMe, and 0.1 mM PMSF. Size exclusion chromatography with Superdex 75 was used to increase the purity of the N-Myc-Max protein sample. The purified protein complex was used in subsequent BLI and MST experiments.
An MST assay was conducted to determine the binding affinity of 70619 to the purified N-Myc-Max protein complex. N-Myc-Max protein samples were labeled with the red fluorescent dye NT647 using the Monolith NT Protein labeling kit RED-NHS amine-reactive (NanoTemper Technologies, München, Germany); 70619 was serial diluted with 100% DMSO and mixed with the labeled fluorescent N-Myc-Max (final concentration of protein: 5 nM) in the assay reaction buffer (20 mM Tris, pH = 8, 100 mM NaCl, 0.2 mM TCEP, 0.1 mM PMSF, 5% glycerol) starting at 600 μM, with a final concentration of DMSO of 5%. The protein/inhibitor solution was mixed and incubated at room temperature in the dark for 5 min before being filled into the capillaries. […] Analysis of the data for Kd estimation was calculated with the MO Affinity Analysis software from Nanotemper (München, Germany).

N#Cc1ccc(NNC(=O)c2ccc(C#N)c(Cl)c2)c(C(F)(F)F)c1 [compound 70619]
IC50 ([1]; 24 h, treatment for 1 day, 0–25 µM, read-out: IC50 in the luciferase transcription inhibition assay): 4.3 µM
transcription inhibition activity at 5 µM (in words) ([1]; LNCaP-NMYC, 5 µM): restoring the inhibitory activity
increase in microsomal stability compared to VPC-70551 ([2]; half-life 2310 min vs 140 min): 15 fold
half-life at 1 μM ([2]; mouse, mouse liver microsomes, pH 7.4, mouse liver microsomes, 1 µM compound, read-out: microsomal half-life (T1/2)): 38.5 h
binding to N-Myc-Max complex (in words) [3]: bind weakly
binding to N-Myc-Max complex (in words) ([3]; listed as VPC-70619): somewhat weak affinity
Kd ([3]; estimate, limited solubility in assay buffer, read-out: dissociation constant): > 130 µM
